This note sets out measurements from patent US9403823B2, “Protein kinase inhibitors” (ORIBASE PHARMA, priority 2012, dated 2016).

One experiment has as its target T1, KDR (VEGFR2) (Homo sapiens, UniProt P35968).
T1 construct: purchased Invitrogen
As to the kind of experiment: In vitro kinase assay (Z'-LYTE), KDR (VEGFR2). The following applies: read-out: % of inhibition of the kinase compared to the control. Type of experiment: biochemical. The method, then:
(§1) 1) In Vitro Kinase Assays (Table 10 to Table 21)
(§2) The inhibitory activity of the compounds on several kinases including BRAF, EGFR (ErbB1), EGFR (ErbB1) T790M L858R, FGFR2, KDR (VEGFR2), PDGFRA (PDGFR alpha), SRC and other was evaluated by Invitrogen using the Z′-LYTE® technology. Briefly, the Z′-LYTE® biochemical assay employs a fluorescence-based, coupled-enzyme format and is based on the differential sensitivity of phosphorylated and non-phosphorylated peptides to proteolytic cleavage. The peptide substrate is labeled with two fluorophores—one at each end—that make up a FRET pair. A ratiometric method, which calculates the ratio (the Emission Ratio) of donor emission to acceptor emission after excitation of the donor fluorophore at 400 nm, is used to quantitate reaction progress.
(§3) The compounds are screened in 1% DMSO (final) in the well. For 10 point titrations, 3-fold serial dilutions are conducted from the starting concentration. All Peptide/Kinase Mixtures are diluted to a 2× working concentration in the appropriate Kinase Buffer. All ATP Solutions are diluted to a 4× working concentration in Kinase Buffer (50 mM HEPES pH 7.5, 0.01% BRIJ-35, 10 mM MgCl2, 1 mM EGTA). ATP Km apparent is previously determined using a Z′-LYTE® assay.
(§4) Each compound was incubated at a concentration of 100 nM (excepted to test the activity against ABL and ABL T315I for which the compounds were incubated at a concentration of 10 μM) and the tables 10 to 21 summarize the results obtained showing the inhibitory power of a compound.

In the next experiment the target is T2, BRAF (Homo sapiens, UniProt P15056).
T2 construct: purchased Invitrogen
Kind of experiment: In vitro kinase assay (Z'-LYTE), BRAF. Type of experiment: biochemical. Conditions: read-out: % of inhibition of the kinase compared to the control. As for the experimental part:
as §1, §2, §3, §4

In another experiment the target is T3, EGFR (ErbB1) (Homo sapiens, UniProt P00533).
T3 construct: purchased Invitrogen
Kind of experiment: In vitro kinase assay (Z'-LYTE), EGFR (ErbB1). Type of experiment: biochemical. Conditions: read-out: % of inhibition of the kinase compared to the control. As for the experimental part: as §1, §2, §3, §4

In a further experiment the target is T4, FGFR2 (Homo sapiens, UniProt P21802).
T4 construct: purchased Invitrogen
Kind of experiment: In vitro kinase assay (Z'-LYTE), FGFR2. The experiment is classed as biochemical. The following applies: read-out: % of inhibition of the kinase compared to the control. The method, then:
as §1, §2, §3, §4

A further experiment has as its system HUVEC. As to the kind of experiment: In vitro cell proliferation assay (MTT), HUVEC. The experiment is classed as cell-based. Conditions: Homo sapiens, read-out: EC50, anti-proliferative activity. As for the experimental part: (§5) 2) In Vitro Cell Proliferation Assays (Table 22 to Table 35)
(§6) Cancer cell lines (5×10^3 cells per well) or HUVEC (1×10^4 cells per well) or HRMEC (1×10^4 cells per well) were distributed in 96-well plates and incubating in duplicate with escalating concentrations (10 nM to 3 μM) of compounds for 72 hr. Cell proliferation was measured using MTT (3[4,5-dimethylthiazol-2-yl]-2,5-diphenyltetrazolium bromide).

For a further experiment, the system named is HepG2 cell line. As to the kind of experiment: In vitro cell proliferation assay (MTT), HepG2. Type of experiment: cell-based. Conditions: Homo sapiens, read-out: EC50, anti-proliferative activity. The method, then:
as §5, §6

The target of the next experiment is T5, SRC (Homo sapiens, UniProt P12931).
T5 construct: purchased Invitrogen
As to the kind of experiment: In vitro kinase assay (Z'-LYTE), SRC. The experiment is classed as biochemical. The following applies: read-out: % of inhibition of the kinase compared to the control. The method, then: as §1, §2, §3, §4

In a further experiment the target is T6, PDGFRA (PDGFR alpha) (Homo sapiens, UniProt P16234).
T6 construct: purchased Invitrogen
As to the kind of experiment: In vitro kinase assay (Z'-LYTE), PDGFRA. The experiment is classed as biochemical. Conditions: read-out: % of inhibition of the kinase compared to the control. As for the experimental part: as §1, §2, §3, §4

Read-outs that look alike come from different tables or passages of the source.

T3 sequence (P00533 25-1210): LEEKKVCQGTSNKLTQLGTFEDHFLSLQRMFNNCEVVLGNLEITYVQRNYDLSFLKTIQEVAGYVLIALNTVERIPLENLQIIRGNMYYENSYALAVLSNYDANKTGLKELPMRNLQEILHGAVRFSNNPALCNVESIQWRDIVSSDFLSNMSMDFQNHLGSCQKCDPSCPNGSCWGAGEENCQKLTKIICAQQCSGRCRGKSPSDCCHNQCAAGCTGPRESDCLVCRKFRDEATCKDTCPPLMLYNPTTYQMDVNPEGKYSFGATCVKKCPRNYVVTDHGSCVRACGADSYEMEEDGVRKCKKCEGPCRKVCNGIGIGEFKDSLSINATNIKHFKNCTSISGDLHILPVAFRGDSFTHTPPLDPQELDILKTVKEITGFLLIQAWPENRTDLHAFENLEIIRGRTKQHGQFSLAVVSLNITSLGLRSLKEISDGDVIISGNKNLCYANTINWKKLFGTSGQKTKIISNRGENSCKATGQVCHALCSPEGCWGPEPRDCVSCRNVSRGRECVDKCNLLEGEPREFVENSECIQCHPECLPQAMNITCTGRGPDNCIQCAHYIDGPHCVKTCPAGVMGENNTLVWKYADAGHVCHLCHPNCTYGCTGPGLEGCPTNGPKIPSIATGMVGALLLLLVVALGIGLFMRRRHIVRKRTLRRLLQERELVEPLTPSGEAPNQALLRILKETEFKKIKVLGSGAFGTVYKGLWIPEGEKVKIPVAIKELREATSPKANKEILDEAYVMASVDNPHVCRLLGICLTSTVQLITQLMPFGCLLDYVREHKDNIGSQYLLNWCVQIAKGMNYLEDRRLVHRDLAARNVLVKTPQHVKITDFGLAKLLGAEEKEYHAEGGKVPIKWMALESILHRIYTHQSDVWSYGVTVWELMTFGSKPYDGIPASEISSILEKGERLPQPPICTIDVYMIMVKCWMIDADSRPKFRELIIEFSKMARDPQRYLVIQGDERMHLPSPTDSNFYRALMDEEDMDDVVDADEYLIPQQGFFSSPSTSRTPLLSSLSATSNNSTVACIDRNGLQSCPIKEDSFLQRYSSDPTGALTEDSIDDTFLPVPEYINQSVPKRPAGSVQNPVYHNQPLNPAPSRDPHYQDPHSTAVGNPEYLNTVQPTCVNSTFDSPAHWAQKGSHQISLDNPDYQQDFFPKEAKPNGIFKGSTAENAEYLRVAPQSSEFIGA
T6 sequence (P16234 24-1089): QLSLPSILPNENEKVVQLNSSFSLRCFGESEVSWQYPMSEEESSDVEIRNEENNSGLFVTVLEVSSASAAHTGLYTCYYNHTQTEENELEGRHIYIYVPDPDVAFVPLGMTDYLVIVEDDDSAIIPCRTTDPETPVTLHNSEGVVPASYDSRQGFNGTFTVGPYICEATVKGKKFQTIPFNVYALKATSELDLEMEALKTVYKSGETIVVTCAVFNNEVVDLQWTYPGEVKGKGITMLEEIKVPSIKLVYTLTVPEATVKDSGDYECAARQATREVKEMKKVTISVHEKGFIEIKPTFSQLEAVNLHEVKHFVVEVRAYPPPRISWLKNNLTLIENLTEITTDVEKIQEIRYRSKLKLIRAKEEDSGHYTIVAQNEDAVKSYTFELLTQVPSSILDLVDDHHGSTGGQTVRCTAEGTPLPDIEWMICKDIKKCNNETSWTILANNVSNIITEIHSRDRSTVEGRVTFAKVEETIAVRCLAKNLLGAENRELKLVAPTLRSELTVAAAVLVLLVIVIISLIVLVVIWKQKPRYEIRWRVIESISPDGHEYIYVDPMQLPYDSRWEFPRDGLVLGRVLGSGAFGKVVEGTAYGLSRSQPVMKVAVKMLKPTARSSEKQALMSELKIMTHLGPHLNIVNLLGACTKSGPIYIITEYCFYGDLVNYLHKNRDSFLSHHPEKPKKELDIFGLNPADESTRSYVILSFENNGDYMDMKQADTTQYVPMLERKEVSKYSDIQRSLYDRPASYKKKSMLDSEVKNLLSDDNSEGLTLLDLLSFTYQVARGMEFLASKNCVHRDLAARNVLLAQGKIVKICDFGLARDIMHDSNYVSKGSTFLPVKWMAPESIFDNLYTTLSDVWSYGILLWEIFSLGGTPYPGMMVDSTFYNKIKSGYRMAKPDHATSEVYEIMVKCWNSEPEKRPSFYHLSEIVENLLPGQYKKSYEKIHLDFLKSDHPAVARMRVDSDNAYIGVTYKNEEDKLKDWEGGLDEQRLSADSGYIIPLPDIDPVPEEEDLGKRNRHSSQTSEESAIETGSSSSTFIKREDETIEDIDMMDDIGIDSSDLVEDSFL
T1 sequence (P35968 20-1356): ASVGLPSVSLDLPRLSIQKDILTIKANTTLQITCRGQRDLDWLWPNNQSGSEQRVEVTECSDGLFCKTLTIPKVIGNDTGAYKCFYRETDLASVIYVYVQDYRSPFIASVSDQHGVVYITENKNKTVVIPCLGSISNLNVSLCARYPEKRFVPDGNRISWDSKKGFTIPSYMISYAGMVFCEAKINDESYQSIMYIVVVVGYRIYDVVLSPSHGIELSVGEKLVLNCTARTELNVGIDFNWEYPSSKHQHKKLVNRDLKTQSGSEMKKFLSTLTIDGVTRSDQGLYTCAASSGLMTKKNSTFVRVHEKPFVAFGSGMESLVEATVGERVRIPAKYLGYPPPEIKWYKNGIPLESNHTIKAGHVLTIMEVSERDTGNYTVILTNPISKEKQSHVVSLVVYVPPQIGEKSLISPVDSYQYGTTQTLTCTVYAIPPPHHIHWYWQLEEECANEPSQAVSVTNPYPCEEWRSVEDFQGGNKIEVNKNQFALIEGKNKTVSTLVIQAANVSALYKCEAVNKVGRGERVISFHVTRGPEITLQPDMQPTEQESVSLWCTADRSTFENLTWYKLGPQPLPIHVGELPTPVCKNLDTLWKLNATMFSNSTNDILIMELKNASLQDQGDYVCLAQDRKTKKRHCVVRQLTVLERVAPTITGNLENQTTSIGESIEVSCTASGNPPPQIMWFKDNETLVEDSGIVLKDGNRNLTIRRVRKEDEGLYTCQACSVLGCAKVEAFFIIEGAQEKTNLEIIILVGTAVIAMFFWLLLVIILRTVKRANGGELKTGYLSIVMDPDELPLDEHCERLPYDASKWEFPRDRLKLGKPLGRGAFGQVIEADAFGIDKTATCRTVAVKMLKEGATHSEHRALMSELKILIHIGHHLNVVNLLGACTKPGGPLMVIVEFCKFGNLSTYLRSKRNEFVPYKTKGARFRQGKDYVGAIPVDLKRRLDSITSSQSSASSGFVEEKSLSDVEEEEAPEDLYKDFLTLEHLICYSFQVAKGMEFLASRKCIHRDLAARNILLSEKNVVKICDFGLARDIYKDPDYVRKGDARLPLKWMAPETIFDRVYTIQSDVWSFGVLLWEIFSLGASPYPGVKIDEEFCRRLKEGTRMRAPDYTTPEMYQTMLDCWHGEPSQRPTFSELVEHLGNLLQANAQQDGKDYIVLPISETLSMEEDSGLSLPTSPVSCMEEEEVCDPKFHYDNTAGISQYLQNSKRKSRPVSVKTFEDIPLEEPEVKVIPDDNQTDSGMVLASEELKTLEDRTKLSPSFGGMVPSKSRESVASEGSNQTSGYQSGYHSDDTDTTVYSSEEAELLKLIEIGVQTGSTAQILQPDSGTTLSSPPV
T2 sequence (P15056 whole entry): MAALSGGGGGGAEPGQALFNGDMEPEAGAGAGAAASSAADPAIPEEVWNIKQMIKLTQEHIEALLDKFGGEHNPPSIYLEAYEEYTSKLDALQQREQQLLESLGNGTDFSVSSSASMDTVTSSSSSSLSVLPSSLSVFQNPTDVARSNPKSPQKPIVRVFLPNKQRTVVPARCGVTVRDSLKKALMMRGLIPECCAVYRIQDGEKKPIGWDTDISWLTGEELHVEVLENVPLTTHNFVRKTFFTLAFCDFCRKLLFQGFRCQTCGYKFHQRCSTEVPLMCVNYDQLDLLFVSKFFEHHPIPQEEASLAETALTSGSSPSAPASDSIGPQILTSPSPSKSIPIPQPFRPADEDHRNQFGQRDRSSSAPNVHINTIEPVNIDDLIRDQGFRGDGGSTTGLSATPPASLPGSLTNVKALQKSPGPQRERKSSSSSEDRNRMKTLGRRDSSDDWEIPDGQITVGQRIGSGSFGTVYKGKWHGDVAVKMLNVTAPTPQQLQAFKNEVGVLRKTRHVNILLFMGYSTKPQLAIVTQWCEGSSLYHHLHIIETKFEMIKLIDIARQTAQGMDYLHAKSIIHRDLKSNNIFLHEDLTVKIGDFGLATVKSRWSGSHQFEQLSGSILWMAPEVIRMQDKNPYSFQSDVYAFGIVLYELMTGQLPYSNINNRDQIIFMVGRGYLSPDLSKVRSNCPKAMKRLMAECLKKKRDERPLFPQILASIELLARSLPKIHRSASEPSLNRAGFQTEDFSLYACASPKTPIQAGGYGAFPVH
T5 sequence (P12931 whole entry): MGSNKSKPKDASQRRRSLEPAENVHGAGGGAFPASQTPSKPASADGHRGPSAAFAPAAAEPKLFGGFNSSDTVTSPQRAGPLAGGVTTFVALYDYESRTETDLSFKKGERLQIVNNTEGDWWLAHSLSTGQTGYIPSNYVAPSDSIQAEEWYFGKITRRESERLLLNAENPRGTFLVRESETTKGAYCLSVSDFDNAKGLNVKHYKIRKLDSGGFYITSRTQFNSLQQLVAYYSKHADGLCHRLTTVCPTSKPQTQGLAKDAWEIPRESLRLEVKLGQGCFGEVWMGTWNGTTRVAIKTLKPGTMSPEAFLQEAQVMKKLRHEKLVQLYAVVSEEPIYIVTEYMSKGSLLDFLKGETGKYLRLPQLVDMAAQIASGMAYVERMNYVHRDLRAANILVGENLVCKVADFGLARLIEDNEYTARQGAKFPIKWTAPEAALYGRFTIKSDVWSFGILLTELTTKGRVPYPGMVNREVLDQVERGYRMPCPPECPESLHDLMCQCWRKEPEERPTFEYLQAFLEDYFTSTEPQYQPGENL

As to `Cc1ccc(NC(=O)c2ccc(CN3CCN(C)CC3)c(C(F)(F)F)c2)cc1C(=O)Nc1cnc2[nH]c(C(=O)O)cc2c1` [OR0810, 5-{2-Methyl-5-[4-(4-methyl-piperazin-1-ylmethyl)-3-trifluoromethyl-benzoylamino]-benzoylamino}-1H-pyrrolo[2,3-b]pyridine-2-carboxylic acid], the inhibition at 0.1 µM on KDR (VEGFR2) is no less than 50%; at BRAF it was less than 50%; on EGFR (ErbB1) it was no less than 50%; at FGFR2 it was no less than 50%.

Consider `Cc1ccc(NC(=O)c2ccc(CN3CC[C@H](N(C)C)C3)c(C(F)(F)F)c2)cc1CNc1cnc2[nH]c(C(=O)O)cc2c1` [OR0814, 5-{5-[4-((S)-3-Dimethylamino-pyrrolidin-1-ylmethyl)-3-trifluoromethyl-benzoylamino]-2-methyl-benzylamino}-1H-pyrrolo[2,3-b]pyridine-2-carboxylic acid], for which the inhibition at 0.1 µM on KDR (VEGFR2) was no less than 50%; at BRAF it was less than 50%; at EGFR (ErbB1), no less than 50%; on FGFR2, no less than 50%.

`CC(=O)c1cc2cc(NCc3cc(NC(=O)c4ccc(C(F)(F)F)nc4)ccc3C)cnc2[nH]1` [OR0886, N-{3-[(2-Acetyl-1H-pyrrolo[2,3-b]pyridin-5-ylamino)-methyl]-4-methyl-phenyl}-6-trifluoromethyl-nicotinamide]: the EC50 in the experiment on HUVEC (72 h) is 0.1 to 1 µM; in the experiment on HepG2 cell line (HepG2, 72 hr, MTT), no less than 1 µM. In addition, the inhibition at 0.1 µM at KDR (VEGFR2) was less than 50%; at BRAF, less than 50%; at SRC, less than 50%; at FGFR2, less than 50%; at PDGFRA (PDGFR alpha), no less than 50%.

As for `CC(=O)c1cc2cc(NCc3cc(NC(=O)c4ccnc(C(F)(F)F)c4)ccc3C)cnc2[nH]1` [OR0887, N-{3-[(2-Acetyl-1H-pyrrolo[2,3-b]pyridin-5-ylamino)-methyl]-4-methyl-phenyl}-2-trifluoromethyl-isonicotinamide], the EC50 in the experiment with HUVEC (72 h) was 0.1 to 1 µM. Moreover, the inhibition at 0.1 µM at KDR (VEGFR2) was no less than 50%; on BRAF, no less than 50%; at EGFR (ErbB1), less than 50%; on FGFR2, less than 50%.

In the case of `CC(=O)c1cc2cc(NCc3cc(NC(=O)c4cncc(C)c4)ccc3C)cnc2[nH]1` [OR0888, N-{3-[(2-Acetyl-1H-pyrrolo[2,3-b]pyridin-5-ylamino)-methyl]-4-methyl-phenyl}-5-methyl-nicotinamide], the EC50 with HUVEC (72 h) is 0.1 to 1 µM; with HepG2 cell line (HepG2, 72 hr, MTT) it was no less than 1 µM. The inhibition at 0.1 µM on KDR (VEGFR2) is no less than 50%; at BRAF, no less than 50%; on EGFR (ErbB1), less than 50%; at SRC it was no less than 50%; on FGFR2, less than 50%; at PDGFRA (PDGFR alpha) it was no less than 50%.

Consider `CC(=O)c1cc2cc(NCc3cc(NC(=O)c4ccnc(C)c4)ccc3C)cnc2[nH]1` [OR0889, N-{3-[(2-Acetyl-1H-pyrrolo[2,3-b]pyridin-5-ylamino)-methyl]-4-methyl-phenyl}-2-methyl-isonicotinamide], for which the half-maximal effective concentration (EC50) with HUVEC (72 h) was 0.1 to 1 µM; in the experiment on HepG2 cell line (HepG2, 72 hr, MTT) it was no less than 1 µM. Besides, the inhibition at 0.1 µM is less than 50% on KDR (VEGFR2); no less than 50% on BRAF; less than 50% on EGFR (ErbB1); less than 50% at SRC; less than 50% at FGFR2; no less than 50% at PDGFRA (PDGFR alpha).

For the compound `CC(=O)c1cc2cc(NCc3cc(NC(=O)c4cccc(C(F)(F)F)c4)ccc3C)cnc2[nH]1` [OR0893, N-{3-[(2-Acetyl-1H-pyrrolo[2,3-b]pyridin-5-ylamino)-methyl]-4-methyl-phenyl}-3-trifluoromethyl-benzamide], the EC50 is 0.1 to 1 µM with HUVEC (72 h) and no more than 0.1 µM in the experiment with HepG2 cell line (HepG2, 72 h). Moreover, the inhibition at 0.1 µM on KDR (VEGFR2) is no less than 50%; on BRAF, no less than 50%; on EGFR (ErbB1), no less than 50%; on FGFR2, less than 50%.

For `CC(=O)c1cc2cc(NCc3ccc(F)c(NC(=O)c4cncc(C(F)(F)F)c4)c3)cnc2[nH]1` [OR0894, N-{5-[(2-Acetyl-1H-pyrrolo[2,3-b]pyridin-5-ylamino)-methyl]-2-fluoro-phenyl}-5-trifluoromethyl-nicotinamide], in the experiment on HUVEC (72 hr, MTT), the EC50 was no less than 1 µM. Besides, the inhibition at 0.1 µM at KDR (VEGFR2) is no less than 50%; on BRAF, no less than 50%; on EGFR (ErbB1) it was less than 50%; on FGFR2, no less than 50%.

Regarding `CC(=O)c1cc2cc(NCc3cccc(C(=O)Nc4cccnc4)c3)cnc2[nH]1` [OR0917, 3-[(2-Acetyl-1H-pyrrolo[2,3-b]pyridin-5-ylamino)-methyl]-N-pyridin-3-yl-benzamide], the half-maximal effective concentration (EC50) in the experiment with HUVEC (72 hr, MTT) is no less than 1 µM; in the experiment on HepG2 cell line (HepG2, 72 hr, MTT) it was no less than 1 µM. Moreover, the inhibition at 0.1 µM was no less than 50% at KDR (VEGFR2), less than 50% on BRAF, no less than 50% on EGFR (ErbB1) and no less than 50% on FGFR2.

As for `CC(=O)c1cc2cc(NCc3cccc(NC(=O)c4ccc(CN5CC[C@H](N(C)C)C5)c(C(F)(F)F)c4)c3)cnc2[nH]1` [OR0927, N-{3-[(2-Acetyl-1H-pyrrolo[2,3-b]pyridin-5-ylamino)-methyl]-phenyl}-4-((S)-3-dimethylamino-pyrrolidin-1-ylmethyl)-3-trifluoromethyl-benzamide], the EC50 in the experiment on HUVEC (72 h) was 0.1 to 1 µM; with HepG2 cell line (HepG2, 72 h), 0.1 to 1 µM. Moreover, the inhibition at 0.1 µM was no less than 50% on KDR (VEGFR2), less than 50% at BRAF, no less than 50% at EGFR (ErbB1) and no less than 50% on FGFR2.

Take `CC(=O)c1cc2cc(NCc3cc(NC(=O)c4cncc(C(F)(F)F)c4)ccc3F)cnc2[nH]1` [OR0970, N-{5-[(2-Acetyl-1H-pyrrolo[2,3-b]pyridin-5-ylamino)-methyl]-4-fluoro-phenyl}-5-trifluoromethyl-nicotinamide]: the EC50 is no less than 1 µM with HUVEC (72 hr, MTT) and 0.1 to 1 µM in the experiment on HepG2 cell line (HepG2, 72 h). Moreover, the inhibition at 0.1 µM at KDR (VEGFR2) is no less than 50%; on BRAF, no less than 50%; on EGFR (ErbB1), less than 50%; on FGFR2, less than 50%.

In the case of `CC(=O)c1cc2cc(NCc3cc(NC(=O)c4ccc(CN5CC[C@H](N(C)C)C5)c(C(F)(F)F)c4)ccc3F)cnc2[nH]1` [OR0971, N-{3-[(2-Acetyl-1H-pyrrolo[2,3-b]pyridin-5-ylamino)-methyl]-4-fluoro-phenyl}-4-((S)-3-dimethylamino-pyrrolidin-1-ylmethyl)-3-trifluoromethyl-benzamide], the EC50 in the experiment with HUVEC (72 hr, MTT) was no less than 1 µM; with HepG2 cell line (HepG2, 72 h), 0.1 to 1 µM. Moreover, the inhibition at 0.1 µM on KDR (VEGFR2) was no less than 50%; at BRAF, less than 50%; on EGFR (ErbB1), no less than 50%; on FGFR2, no less than 50%.

Turning to `CC(=O)c1cc2cc(NCc3cc(NC(=O)c4ccc(CN5CCC(N(C)C)C5)c(F)c4)ccc3C)cnc2[nH]1` (stereo not drawn) [OR0973, N-{3-[(2-Acetyl-1H-pyrrolo[2,3-b]pyridin-5-ylamino)-methyl]-4-methyl-phenyl}-4-(3-dimethylamino-pyrrolidin-1-ylmethyl)-3-fluoro-benzamide], the concentration for a half-maximal effect (EC50) with HUVEC (72 hr, MTT) was no less than 1 µM; in the experiment with HepG2 cell line (HepG2, 72 h), 0.1 to 1 µM. Besides, the inhibition at 0.1 µM at KDR (VEGFR2) was no less than 50%; on BRAF, no less than 50%; on EGFR (ErbB1) it was no less than 50%; at FGFR2, less than 50%.

As to `CC(=O)c1cc2cc(NC(=O)c3cccc(CNC(=O)c4ccc(CN5CCN(C)CC5)c(C(F)(F)F)c4)c3)cnc2[nH]1` [OR0984, N-[3-(2-Acetyl-1H-pyrrolo[2,3-b]pyridin-5-ylcarbamoyl)-benzyl]-4-(4-methyl-piperazin-1-ylmethyl)-3-trifluoromethyl-benzamide], the inhibition at 0.1 µM at KDR (VEGFR2), on BRAF, at EGFR (ErbB1), at SRC, on FGFR2 and on PDGFRA (PDGFR alpha) was less than 50% in each case. Moreover, in the experiment with HepG2 cell line (HepG2, 72 hr, MTT), the concentration for a half-maximal effect (EC50) was no less than 1 µM.
